Test results taken from ChEMBL document CHEMBL1145697, “Halishigamides AD, New Cytotoxic Oxazole-Containing Metabolites from Okinawan Sponge Halichondria sp” (J Nat Prod, 1997).
≈ marks a conversion by molar mass, not a printed value.

How the values were obtained:
L1210 = experiment: Cytotoxicity against mouse L1210 cells; assay type: functional, cell-based
KB = experiment: Cytotoxicity against human KB cells; assay type: functional, cell-based
[1] = test system: Trichophyton mentagrophytes; experiment: Antifungal activity against Trichophyton mentagrophytes; assay type: functional

SMILES: CO[C@@H](C[C@@H]1OC(=O)C[C@@H](O)C[C@H](N)CC(=O)[C@H](C)[C@H](OC)c2coc(n2)-c2coc(n2)-c2coc(n2)/C=C/CC[C@H]1C)[C@@H](C)CCC(=O)[C@H](C)[C@@H](C/C=C/N(C)C=O)OC [HALISHIGAMIDE A]
- IC50 (L1210): 0.0036 µg/mL (≈ 0.00422 µM)
- IC50 (KB): 0.012 µg/mL (≈ 0.0141 µM)
- MIC [1]: 0.1 µg/mL (≈ 0.117 µM)

SMILES: COC(=O)c1coc(/C=C/CCC(C)C(CC(OC)C(C)CCC(=O)C(C)C(C/C=C/N(C)C=O)OC)OC(=O)CC(O)C/C=C/C(=O)C(C)C(OC)c2coc(C(N)=O)n2)n1 (configuration not stated) [HALISHIGAMIDE D]
- IC50 (L1210): 1.1 µg/mL (≈ 1.26 µM)
- IC50 (KB): 1.8 µg/mL (≈ 2.06 µM)
- MIC [1]: 6.5 µg/mL (≈ 7.45 µM)

SMILES: COC(CC1OC(=O)CC(O)C/C=C/C(=O)C(C)C(OC)C(=O)NC(=O)c2coc(n2)-c2coc(n2)/C=C/CCC1C)C(C)CCC(=O)C(C)C(C/C=C/N(C)C=O)OC (configuration not stated) [HALISHIGAMIDE B]
- IC50 (L1210): 4.4 µg/mL (≈ 5.23 µM)
- IC50 (KB): 7.5 µg/mL (≈ 8.92 µM)
- MIC [1]: 25 µg/mL (≈ 29.7 µM)

SMILES: COC(=O)c1coc(-c2coc(/C=C/CCC(C)C(CC(OC)C(C)CCC(=O)C(C)C(C/C=C/N(C)C=O)OC)OC(=O)CC(O)C/C=C/C(=O)C(C)C(OC)C(N)=O)n2)n1 (configuration not stated) [HALISHIGAMIDE C]
- IC50 (L1210): 5.2 µg/mL (≈ 5.96 µM)
- IC50 (KB): 6.5 µg/mL (≈ 7.45 µM)
- MIC [1]: 25 µg/mL (≈ 28.6 µM)
